We go through one compound from patent publication US9051265B2, “N-benzylindole modulators of PPARG” (The Scripps Research Institute, priority 2011, dated 2015).

Structures are written as SMILES.

This experiment has as its system PPARG (murine PPARg2 or full-length human PPARg). Briefly: Cell-based PPRE-luciferase transactivation assay in COS-1 cells.

As for `CN(CCOc1ccc(CC2SC(=O)NC2=O)cc1)c1ccccn1` (stereo not shown) [rosiglitazone], the “activation of the PPRE reporter” value was “about 5 fold”.
